Calls of active or inactive are those of the source. No cut-off for these calls is given here.
Experiments:
NCI-H1299 = test: Induction of autophagy in human NCI-H1299 cells stably expressing EGFP-LC3 assessed as change in LC3-II/LC3-I ratio at 10 to 100 uM incubated for 48 hrs by Western blot analysis; assay type: functional, cell-based; details: dose 10-100 µM
HeLa [1] = test: Effect on cell cycle progression in human HeLa cells assessed as changes in cell cycle stages at 50 to 100 uM incubated for 72 hrs by PI-staining based flow cytometry; assay type: functional; details: dose 50-100 µM
[2] = target: T1, Protein deacetylase HDAC6 (Homo sapiens) (UniProt Q9UBN7); test: Inhibition of human recombinant KDAC6 using Boc-Lys-(Ac)-AMC as substrate at 50 to 100 uM incubated for 45 mins by fluorescence microplate reader analysis; details: dose 50-100 µM
T1 sequence (whole entry): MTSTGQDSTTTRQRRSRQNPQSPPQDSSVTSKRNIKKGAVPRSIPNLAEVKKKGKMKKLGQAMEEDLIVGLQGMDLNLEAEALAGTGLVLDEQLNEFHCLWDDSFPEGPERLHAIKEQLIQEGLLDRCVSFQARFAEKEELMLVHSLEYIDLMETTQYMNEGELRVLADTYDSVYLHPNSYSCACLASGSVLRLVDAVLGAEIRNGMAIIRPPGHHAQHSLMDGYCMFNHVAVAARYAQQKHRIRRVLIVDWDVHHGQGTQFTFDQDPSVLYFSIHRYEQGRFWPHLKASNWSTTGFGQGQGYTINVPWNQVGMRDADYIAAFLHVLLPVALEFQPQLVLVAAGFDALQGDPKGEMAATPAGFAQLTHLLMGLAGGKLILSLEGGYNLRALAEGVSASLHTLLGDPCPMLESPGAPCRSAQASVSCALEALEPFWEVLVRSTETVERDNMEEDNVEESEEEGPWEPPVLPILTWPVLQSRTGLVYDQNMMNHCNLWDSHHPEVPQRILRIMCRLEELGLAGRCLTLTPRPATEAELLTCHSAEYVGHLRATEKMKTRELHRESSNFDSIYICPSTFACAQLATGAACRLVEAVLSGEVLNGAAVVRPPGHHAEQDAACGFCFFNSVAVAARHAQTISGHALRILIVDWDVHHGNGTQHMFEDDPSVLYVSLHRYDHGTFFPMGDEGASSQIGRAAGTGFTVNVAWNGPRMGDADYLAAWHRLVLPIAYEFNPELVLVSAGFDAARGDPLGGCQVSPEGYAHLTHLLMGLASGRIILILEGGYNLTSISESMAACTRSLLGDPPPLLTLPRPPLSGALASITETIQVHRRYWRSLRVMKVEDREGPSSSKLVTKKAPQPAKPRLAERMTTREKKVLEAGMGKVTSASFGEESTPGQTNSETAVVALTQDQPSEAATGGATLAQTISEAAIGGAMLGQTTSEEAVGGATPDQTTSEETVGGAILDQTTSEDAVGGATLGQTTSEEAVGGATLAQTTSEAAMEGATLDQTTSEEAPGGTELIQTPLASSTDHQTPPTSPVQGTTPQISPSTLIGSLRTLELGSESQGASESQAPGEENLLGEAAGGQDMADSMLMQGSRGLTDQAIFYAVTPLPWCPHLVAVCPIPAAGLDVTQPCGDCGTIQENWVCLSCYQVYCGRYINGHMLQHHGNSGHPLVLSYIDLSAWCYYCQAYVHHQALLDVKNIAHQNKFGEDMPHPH

[3] = Cytotoxicity against human primary lung fibroblast assessed as inhibition of cell viability at 25 to 200 uM incubated for 72 hrs by MTT assay; assay type: toxicity, cell-based; details: dose 25-200 µM
[4] = target: Histone acetyltransferase KAT2B (Homo sapiens) (UniProt Q92831); test: Inhibition of recombinant human KAT2B (492 to 658 residues) using histone H3 peptide and [3H]-acetyl-coA as substrates at 200 uM incubated for 1 hrs by liquid scintillation counter analysis
[5] = target: T2, Histone acetyltransferase KAT8 (Homo sapiens) (UniProt Q9H7Z6); test: Reversible inhibition of N-terminal 6His tagged KAT8 (173 to 458 residues) (unknown origin) expressed in Escherichia coli BL21(DE3) using biotinylated histone H4 peptide and [3H]Acetyl-CoA as substrates at 10XIC50 preincubated for 30 mins followed by dilution and substrate addition and measured upto 240 mins by MicroBeta microplate counter analysis; details: time 270.0 min
T2 sequence (whole entry): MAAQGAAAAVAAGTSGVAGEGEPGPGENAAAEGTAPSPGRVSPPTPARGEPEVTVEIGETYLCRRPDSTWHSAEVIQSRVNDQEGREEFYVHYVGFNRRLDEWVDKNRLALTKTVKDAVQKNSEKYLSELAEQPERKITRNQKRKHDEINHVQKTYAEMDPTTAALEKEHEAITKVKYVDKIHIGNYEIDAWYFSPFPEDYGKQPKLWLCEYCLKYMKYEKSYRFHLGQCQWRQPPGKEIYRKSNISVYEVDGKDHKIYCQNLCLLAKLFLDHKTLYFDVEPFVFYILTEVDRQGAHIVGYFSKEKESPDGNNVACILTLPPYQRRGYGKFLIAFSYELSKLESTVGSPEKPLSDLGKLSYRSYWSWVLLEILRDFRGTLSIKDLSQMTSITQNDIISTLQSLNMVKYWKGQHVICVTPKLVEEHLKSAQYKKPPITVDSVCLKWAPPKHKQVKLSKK

[6] = target: T2, Histone acetyltransferase KAT8 (Homo sapiens); test: Binding affinity to KAT8 in human HT-29 cells at 59 degreeC at 100 nM incubated for 4 hrs by […] analysis; assay type: cell-based
AHH-1 = test: Cytotoxicity against human AHH-1 cells assessed as inhibition of cell viability at 25 to 200 uM incubated for 72 hrs by MTT assay; assay type: toxicity, cell-based; details: ahh-1, 72 h, dose 25-200 µM
HT-29 [7] = test: Induction of cell cycle arrest in human HT-29 cells assessed as increase in number of cells at sub-G1 phase with DNA hypodiploid at 50 uM incubated for 72 hrs by PI-staining based flow cytometry (Rvb=2%); assay type: functional
HT-29 [8] = test: Induction of apoptosis in human HT-29 cells assessed as slight increase in apoptotic cells at 50 to 100 uM incubated for 72 hrs by Annexin V-FITC staining based flow cytometry; assay type: functional, cell-based; details: dose 50-100 µM
HT-29 [9] = test: Antiproliferative activity against human HT-29 cells assessed as cell proliferation inhibition at 10 to 100 uM incubated for 72 hrs by MTT assay; assay type: functional, cell-based; details: dose 10-100 µM
HeLa [10] = test: Antiproliferative activity against human HeLa cells assessed as cell proliferation inhibition at 10 to 100 uM incubated for 72 hrs by MTT assay; assay type: functional, cell-based; details: dose 10-100 µM
U-251 = test: Antiproliferative activity against human U-251 cells assessed as cell proliferation inhibition at 10 to 100 uM incubated for 72 hrs by MTT assay; assay type: functional, cell-based; details: dose 10-100 µM
A549 = test: Antiproliferative activity against human A549 cells assessed as cell proliferation inhibition at 10 to 100 uM incubated for 72 hrs by MTT assay; assay type: functional, cell-based; details: dose 10-100 µM
HCT-116 [11] = test: Effect on cell cycle progression in human HCT-116 cells assessed as changes in cell cycle stages at 50 to 100 uM incubated for 72 hrs by PI-staining based flow cytometry; assay type: functional; details: dose 50-100 µM
HCT-116 [12] = test: Induction of cell cycle arrest in human HCT-116 cells assessed as increase in number of cells at sub-G1 phase with DNA hypodiploid at 100 uM incubated for 72 hrs by PI-staining based flow cytometry (Rvb=2%); assay type: functional

Histone acetyltransferase KAT2B (Homo sapiens), sequence (Q92831 whole entry, looked up, the tested form may be a part): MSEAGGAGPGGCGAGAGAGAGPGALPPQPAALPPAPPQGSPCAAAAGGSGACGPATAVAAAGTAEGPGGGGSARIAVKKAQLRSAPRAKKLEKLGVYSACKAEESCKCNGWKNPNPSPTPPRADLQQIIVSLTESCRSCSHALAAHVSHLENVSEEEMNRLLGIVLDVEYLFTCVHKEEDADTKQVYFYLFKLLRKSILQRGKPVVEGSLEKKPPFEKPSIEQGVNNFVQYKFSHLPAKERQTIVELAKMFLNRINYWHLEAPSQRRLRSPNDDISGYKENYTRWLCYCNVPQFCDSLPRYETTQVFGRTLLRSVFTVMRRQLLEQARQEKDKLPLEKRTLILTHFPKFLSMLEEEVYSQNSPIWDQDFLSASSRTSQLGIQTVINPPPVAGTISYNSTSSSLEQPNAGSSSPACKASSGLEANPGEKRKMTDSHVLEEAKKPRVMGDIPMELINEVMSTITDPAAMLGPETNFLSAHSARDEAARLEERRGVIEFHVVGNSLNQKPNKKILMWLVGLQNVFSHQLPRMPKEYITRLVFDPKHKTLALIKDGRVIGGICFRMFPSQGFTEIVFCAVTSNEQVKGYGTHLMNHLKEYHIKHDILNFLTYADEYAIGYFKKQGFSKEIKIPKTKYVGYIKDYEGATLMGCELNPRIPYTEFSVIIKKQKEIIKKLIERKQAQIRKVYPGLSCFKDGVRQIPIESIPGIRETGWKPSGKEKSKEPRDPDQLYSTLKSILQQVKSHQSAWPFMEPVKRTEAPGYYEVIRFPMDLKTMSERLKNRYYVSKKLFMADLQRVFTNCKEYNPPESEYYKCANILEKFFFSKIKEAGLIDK

Row | inhibition [2] | inhibition [4] | inhibition [5] | Activity [6] | SMILES | Activity (NCI-H1299) | Activity (HeLa [1]) | Activity [3] | Activity (AHH-1) | Activity (HT-29 [7]) [%] | Activity (HT-29 [8]) | Activity (HT-29 [9]) | Activity (HeLa [10]) | Activity (U-251) | Activity (A549) | Activity (HCT-116 [11]) | Activity (HCT-116 [12]) [%]
1 | inactive | inactive | Active | Active | CC1=NN(c2ccc(C(=O)O)cc2)C(=O)/C1=C\c1ccc[nH]1 | Active | inactive | Non-Toxic | Non-Toxic | 7 | Active | Active | Active | inactive | Dose-Dependent Effect | inactive | 6
2 | inactive | inactive | Active | Active | O=C(O)c1ccc(N2N=C(c3ccccc3)/C(=C/c3ccc[nH]3)C2=O)cc1 | Active | inactive | Non-Toxic | Non-Toxic | 8 | Active | Active | Active | inactive | Dose-Dependent Effect | inactive | 13

From ChEMBL document CHEMBL5338773, “First-in-Class Selective Inhibitors of the Lysine Acetyltransferase KAT8” (J Med Chem, 2023)
